Among the data in patent US20230203059A1, “MACROCYCLIC JAK INHIBITOR AND USES THEREOF” (Biopolar Hongye (Guangdong) Pharmaceutical Co. Ltd., priority 2020, published 2023) are IC50 values, retold here.

Holding throughout (assay type): biochemical
Experiment [1] concerns the target T1, JAK3 (Homo sapiens, UniProt P52333).
T1 sequence (P52333 1-1124): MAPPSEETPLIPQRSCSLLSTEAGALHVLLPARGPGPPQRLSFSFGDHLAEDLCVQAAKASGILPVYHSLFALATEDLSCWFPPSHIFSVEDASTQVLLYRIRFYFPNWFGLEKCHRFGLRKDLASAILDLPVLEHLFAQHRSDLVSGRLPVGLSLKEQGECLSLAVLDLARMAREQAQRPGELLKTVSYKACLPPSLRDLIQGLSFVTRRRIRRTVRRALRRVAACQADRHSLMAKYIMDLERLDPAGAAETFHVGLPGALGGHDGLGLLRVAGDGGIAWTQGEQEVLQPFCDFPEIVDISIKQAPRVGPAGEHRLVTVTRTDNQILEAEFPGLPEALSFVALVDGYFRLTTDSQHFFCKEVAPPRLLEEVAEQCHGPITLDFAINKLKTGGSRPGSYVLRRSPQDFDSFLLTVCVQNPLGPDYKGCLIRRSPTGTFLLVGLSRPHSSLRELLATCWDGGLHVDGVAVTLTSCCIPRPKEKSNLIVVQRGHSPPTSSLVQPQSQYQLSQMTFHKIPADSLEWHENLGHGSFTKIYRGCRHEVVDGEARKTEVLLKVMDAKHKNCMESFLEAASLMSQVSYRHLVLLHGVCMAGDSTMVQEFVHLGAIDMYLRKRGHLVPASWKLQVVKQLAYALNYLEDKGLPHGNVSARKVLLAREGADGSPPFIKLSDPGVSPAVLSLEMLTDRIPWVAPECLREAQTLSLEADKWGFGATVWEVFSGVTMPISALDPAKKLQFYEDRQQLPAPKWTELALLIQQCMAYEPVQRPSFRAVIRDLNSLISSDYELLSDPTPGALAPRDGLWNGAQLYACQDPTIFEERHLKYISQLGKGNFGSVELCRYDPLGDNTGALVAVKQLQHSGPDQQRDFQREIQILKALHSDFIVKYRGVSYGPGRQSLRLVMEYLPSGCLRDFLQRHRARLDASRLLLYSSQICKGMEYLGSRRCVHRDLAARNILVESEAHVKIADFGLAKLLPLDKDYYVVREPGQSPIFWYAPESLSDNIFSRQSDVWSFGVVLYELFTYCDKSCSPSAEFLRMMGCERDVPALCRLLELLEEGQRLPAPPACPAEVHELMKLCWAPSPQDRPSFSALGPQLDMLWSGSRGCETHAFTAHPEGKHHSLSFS
Description: JAK kinase activity, homogeneous time-resolved fluorescence (JAK3 reaction system). Conditions: ATP 2 μM, JAK3 protein 0.04 ng/μL; read-out: JAK 3 activity.

Experiment [2] concerns the target TYK2 (Homo sapiens, UniProt P29597). The experiment is described as follows: JAK kinase activity, homogeneous time-resolved fluorescence (TYK2 reaction system). The settings on record: ATP 2 μM, TYK2 protein 0.2 ng/μL; read-out: TYK 2 activity. The gist of the method: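 Activity read as the 665 nm/615 nm ratio after adding EDTA-containing detection mix with anti-phospho-substrate antibody and XL-615. Beforehand, 0.2 ng/μL TYK2, 2 μM ATP, substrate and compound reacted 1 h in pH 7.0 Hepes buffer with MgCl2 and DTT. IC50 fitted with Hill-slope equation.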

Experiment [3] concerns the target JAK1 (Homo sapiens, UniProt P23458). The experiment is described as follows: JAK kinase activity, homogeneous time-resolved fluorescence (JAK1 reaction system). Conditions: ATP 2 μM, JAK1 protein 0.2 ng/μL; read-out: JAK 1 activity. In short, it runs like this: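 HTRF assay: JAK1 (0.2 ng/μL) with 2 μM ATP and substrate in 50 mM Hepes pH 7.0, 5 mM MgCl2, 1 mM DTT, 1 h. Phospho-substrate antibody/XL-615 detection with EDTA; 665/615 nm ratio, excitation 320 nm. IC50 from Hill-type fit against no-enzyme and no-compound controls.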

In experiment [4] the target is JAK2 (Homo sapiens, UniProt O60674). The experiment is described as follows: JAK kinase activity, homogeneous time-resolved fluorescence (JAK2 reaction system). The settings on record: ATP 2 μM, JAK2 protein 0.01 ng/μL. In short, it runs like this: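 IC50 derived by Hill-equation fit of the 665/615 nm time-resolved fluorescence ratio after EDTA-containing detection mix with anti-phosphosubstrate antibody. Preceding 1 h reaction contained 2 μM ATP, 0.01 ng/μL JAK2, substrate, 50 mM Hepes pH 7.0, 5 mM MgCl2, 1 mM DTT.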

SMILES strings stand for the structures. pIC50: −log10 of the molar value.

Sequence of JAK1 (P23458 whole entry): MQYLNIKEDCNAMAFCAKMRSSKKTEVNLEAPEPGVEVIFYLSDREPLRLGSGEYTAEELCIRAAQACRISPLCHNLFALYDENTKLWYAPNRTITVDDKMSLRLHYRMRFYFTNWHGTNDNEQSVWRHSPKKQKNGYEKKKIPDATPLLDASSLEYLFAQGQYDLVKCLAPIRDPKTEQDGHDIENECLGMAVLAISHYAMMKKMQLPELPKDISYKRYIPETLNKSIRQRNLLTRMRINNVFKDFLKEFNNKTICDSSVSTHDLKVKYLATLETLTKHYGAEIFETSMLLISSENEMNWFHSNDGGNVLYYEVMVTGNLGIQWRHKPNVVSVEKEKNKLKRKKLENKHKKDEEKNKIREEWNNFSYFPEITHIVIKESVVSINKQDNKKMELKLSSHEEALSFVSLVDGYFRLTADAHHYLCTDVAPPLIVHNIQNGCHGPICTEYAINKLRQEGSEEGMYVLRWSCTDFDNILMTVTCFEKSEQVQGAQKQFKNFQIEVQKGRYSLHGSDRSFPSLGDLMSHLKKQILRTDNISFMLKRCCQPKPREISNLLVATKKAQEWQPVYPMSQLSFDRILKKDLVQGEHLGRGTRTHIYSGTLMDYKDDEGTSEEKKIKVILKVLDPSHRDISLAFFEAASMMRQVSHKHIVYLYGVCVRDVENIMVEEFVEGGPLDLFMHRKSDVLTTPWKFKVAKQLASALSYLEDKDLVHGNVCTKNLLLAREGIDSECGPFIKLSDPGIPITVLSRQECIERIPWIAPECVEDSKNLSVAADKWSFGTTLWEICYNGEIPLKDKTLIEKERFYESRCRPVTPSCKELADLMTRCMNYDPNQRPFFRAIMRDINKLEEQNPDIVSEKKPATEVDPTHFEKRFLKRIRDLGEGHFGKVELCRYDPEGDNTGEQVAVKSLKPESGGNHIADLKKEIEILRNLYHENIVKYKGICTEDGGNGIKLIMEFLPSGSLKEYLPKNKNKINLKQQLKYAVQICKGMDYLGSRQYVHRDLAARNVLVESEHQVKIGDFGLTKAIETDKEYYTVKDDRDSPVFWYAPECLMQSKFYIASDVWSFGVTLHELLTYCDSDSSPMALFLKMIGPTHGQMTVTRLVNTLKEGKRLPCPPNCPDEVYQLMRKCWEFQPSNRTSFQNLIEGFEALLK
Sequence of JAK2 (O60674 whole entry): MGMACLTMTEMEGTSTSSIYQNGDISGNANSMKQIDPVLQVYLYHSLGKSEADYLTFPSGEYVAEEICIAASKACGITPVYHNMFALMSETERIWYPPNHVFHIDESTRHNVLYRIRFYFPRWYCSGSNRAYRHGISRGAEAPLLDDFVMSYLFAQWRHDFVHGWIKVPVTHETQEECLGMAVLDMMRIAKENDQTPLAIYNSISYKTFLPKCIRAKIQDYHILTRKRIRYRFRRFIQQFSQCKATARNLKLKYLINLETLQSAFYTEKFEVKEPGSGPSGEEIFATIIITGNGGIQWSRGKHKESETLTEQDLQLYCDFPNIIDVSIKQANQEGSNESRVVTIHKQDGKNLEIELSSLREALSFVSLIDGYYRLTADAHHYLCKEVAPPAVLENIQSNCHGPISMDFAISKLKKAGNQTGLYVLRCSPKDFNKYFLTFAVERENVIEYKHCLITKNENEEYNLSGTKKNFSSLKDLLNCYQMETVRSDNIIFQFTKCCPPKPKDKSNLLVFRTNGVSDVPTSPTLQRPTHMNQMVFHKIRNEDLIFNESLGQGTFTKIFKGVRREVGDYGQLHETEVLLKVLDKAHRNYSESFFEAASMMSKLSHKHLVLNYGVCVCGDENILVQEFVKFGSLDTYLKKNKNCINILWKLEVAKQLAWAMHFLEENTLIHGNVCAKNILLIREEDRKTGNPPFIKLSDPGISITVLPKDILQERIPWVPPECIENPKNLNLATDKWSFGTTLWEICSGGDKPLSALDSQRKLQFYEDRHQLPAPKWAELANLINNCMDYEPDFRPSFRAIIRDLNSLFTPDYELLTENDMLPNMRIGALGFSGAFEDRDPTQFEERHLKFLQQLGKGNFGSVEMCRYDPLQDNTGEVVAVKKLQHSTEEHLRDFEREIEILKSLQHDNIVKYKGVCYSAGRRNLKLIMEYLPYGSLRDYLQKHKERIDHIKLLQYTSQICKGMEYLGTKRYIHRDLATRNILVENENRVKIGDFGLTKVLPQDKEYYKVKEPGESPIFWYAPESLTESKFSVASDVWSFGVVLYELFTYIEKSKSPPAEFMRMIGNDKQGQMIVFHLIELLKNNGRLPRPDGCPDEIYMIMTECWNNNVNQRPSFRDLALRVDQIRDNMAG
Sequence of TYK2 (P29597 whole entry): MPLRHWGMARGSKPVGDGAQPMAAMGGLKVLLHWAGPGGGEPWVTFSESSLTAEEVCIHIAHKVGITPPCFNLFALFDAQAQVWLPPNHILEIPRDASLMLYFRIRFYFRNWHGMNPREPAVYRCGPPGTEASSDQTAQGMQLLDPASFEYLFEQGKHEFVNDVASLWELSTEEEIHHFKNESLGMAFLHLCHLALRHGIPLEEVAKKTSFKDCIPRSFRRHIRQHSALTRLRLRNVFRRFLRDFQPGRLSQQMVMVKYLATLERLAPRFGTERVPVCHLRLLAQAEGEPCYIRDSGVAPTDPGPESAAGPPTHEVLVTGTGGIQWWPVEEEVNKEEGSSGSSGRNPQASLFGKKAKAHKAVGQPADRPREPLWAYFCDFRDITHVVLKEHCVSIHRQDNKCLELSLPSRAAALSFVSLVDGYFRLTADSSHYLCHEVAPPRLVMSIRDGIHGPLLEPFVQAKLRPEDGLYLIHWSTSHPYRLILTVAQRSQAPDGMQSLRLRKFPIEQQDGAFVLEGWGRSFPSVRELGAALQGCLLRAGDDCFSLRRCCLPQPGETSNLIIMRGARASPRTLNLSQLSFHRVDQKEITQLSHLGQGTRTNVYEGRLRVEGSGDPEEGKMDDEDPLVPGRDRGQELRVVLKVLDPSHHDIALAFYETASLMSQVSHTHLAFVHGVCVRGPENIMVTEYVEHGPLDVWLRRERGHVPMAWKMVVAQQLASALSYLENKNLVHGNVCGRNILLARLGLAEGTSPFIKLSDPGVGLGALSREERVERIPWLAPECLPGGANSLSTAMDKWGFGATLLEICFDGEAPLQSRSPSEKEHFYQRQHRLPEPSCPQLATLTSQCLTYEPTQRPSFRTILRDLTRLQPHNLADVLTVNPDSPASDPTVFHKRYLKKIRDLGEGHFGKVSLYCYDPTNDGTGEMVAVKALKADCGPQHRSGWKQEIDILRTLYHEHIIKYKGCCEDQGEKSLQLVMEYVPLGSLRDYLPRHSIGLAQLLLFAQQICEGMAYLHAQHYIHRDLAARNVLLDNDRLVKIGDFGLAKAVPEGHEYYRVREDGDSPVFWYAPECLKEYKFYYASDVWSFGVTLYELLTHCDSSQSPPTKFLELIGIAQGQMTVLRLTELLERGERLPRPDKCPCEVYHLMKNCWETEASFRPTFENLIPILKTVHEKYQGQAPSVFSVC

Consider `O=C1NCCCCOCc2cc(ccc2F)Nc2nccc(n2)-c2ccc1cc2[N+](=O)[O-]` [Example 68, 4^4-fluoro-1^2-nitro-6-oxa-3,11-diaza-2(4,2)-pyrimidina-1(1,4),4(1,3)-di-benzenacyclododecaphan-12-one], for which the pIC50 in experiment [1] was 6.00 to 7.00; in experiment [2], less than 5.00; in experiment [3], 5.00 to 6.00; in experiment [4], 5.00 to 6.00.

Consider `Nc1cc2ccc1-c1ccnc(n1)Nc1ccc(F)c(c1)COCCCCNC2=O` [Example 69, 1^2-amino-4^4-fluoro-6-oxa-3,11-diaza-2(4,2)-pyrimidina-1(1,4),4(1,3)-di-benzenacyclododecaphan-12-one], for which the pIC50 is 7.00 to 7.96 in experiment [1], 5.00 to 6.00 in experiment [2], 5.00 to 6.00 in experiment [3] and 6.00 to 7.00 in experiment [4].

Take `CN1CCN(c2ccc3cc2COCCCCNC(=O)c2ccc(c(N)c2)-c2ccnc(n2)N3)CC1` [Example 70, 1^2-amino-4^4-(4-methylpiperazin-1-yl)-6-oxa-3,11-diaza-2(4,2)-pyrimidi-na-1(1,4),4(1,3)-dibenzenacyclo-dodecaphan-12-one]: the pIC50 is 7.00 to 7.96 in experiment [1], 5.00 to 6.00 in experiment [2], 5.00 to 6.00 in experiment [3] and 6.00 to 7.00 in experiment [4].

For the molecule `O=C1NCCCCOCc2cc(ccc2OC2CCC2)Nc2nccc(n2)-c2ccc1cc2[N+](=O)[O-]` [Example 71, 4^4-cyclobutoxy-1^2-nitro-6-oxa-3,11-diaza-2(4,2)-pyrimidina-1(1,4),4(1,3)-dibenzenacyclododecaphan-12-one], the pIC50 in experiment [1] is 5.00 to 6.00; in experiment [2] it was less than 5.00; in experiment [3], less than 5.00; in experiment [4], less than 5.00.

In the case of `O=C1NCCCCOCc2cc(ccc2OC2COC2)Nc2nccc(n2)-c2ccc1cc2[N+](=O)[O-]` [Example 72, 1^2-nitro-4^4-(oxetan-3-oxy)-6-oxa-3,11-diaza-2(4,2)-pyrimidina-1(1,4),4(1,3)-dibenzenacyclododecaphan-12-one], the pIC50 was 6.00 to 7.00 in experiment [1], less than 5.00 in experiment [2], 5.00 to 6.00 in experiment [3] and 5.00 to 6.00 in experiment [4].

In the case of `O=C1NCCCCOCc2cc(ccc2OC2CC2)Nc2nccc(n2)-c2ccc1cc2[N+](=O)[O-]` [Example 73, 4^4-cyclopropoxy-1^2-nitro-6-oxa-3,11-diaza-2(4,2)-pyrimidina-1(1,4),4(1,3)-dibenzenacyclododecaphan-12-one], the pIC50 in experiment [1] was 6.00 to 7.00; in experiment [2], less than 5.00; in experiment [3], 5.00 to 6.00; in experiment [4], 5.00 to 6.00.

As for `Nc1cc2ccc1-c1ccnc(n1)Nc1ccc(OC3CC3)c(c1)COCCCCNC2=O` [Example 74, 1^2-amino-4^4-cyclopropoxy-6-oxa-3,11-diaza-2(4,2)-pyrimidina-1(1,4),4(1,3)-dibenzenacyclododecaphan-12-one], the pIC50 in experiment [1] is more than 8.00; in experiment [2], 5.00 to 6.00; in experiment [3], 5.00 to 6.00; in experiment [4], 6.00 to 7.00.

`Nc1cc2ccc1-c1ccnc(n1)Nc1ccc(OC3COC3)c(c1)COCCCCNC2=O` [Example 75, 1^2-amino-4^4-(oxetan-3-oxy)-6-oxa-3,11-diaza-2(4,2)-pyrimidina-1(1,4),4(1,3)-dibenzenacyclododecaphan-12-one]: the pIC50 in experiment [1] was 7.00 to 7.96; in experiment [2], 5.00 to 6.00; in experiment [3] it was 5.00 to 6.00; in experiment [4], 6.00 to 7.00.

For the molecule `O=C1NCCCCOCc2cc(cc(N3CCSCC3)c2)Nc2nccc(n2)-c2ccc1cc2[N+](=O)[O-]` [Example 76, 1^2-nitro-4^5-thiomorpholin-6-oxa-3,11-diaza-2(4,2)-pyrimidina-1(1,4),4(1,3)-dibenzenacyclododecaphan-12-one], the pIC50 in experiment [1] is 6.00 to 7.00; in experiment [2], less than 5.00; in experiment [3], 5.00 to 6.00; in experiment [4], 6.00 to 7.00.

As for `Nc1cc2ccc1-c1ccnc(n1)Nc1cc(cc(N3CCSCC3)c1)COCCCCNC2=O` [Example 77, 1^2-amino-4^5-thiomorpholin-6-oxa-3,11-diaza-2(4,2)-pyrimidina-1(1,4),4(1,3)-dibenzenacyclododecaphan-12-one], the pIC50 was 7.00 to 7.96 in experiment [1], 6.00 to 7.00 in experiment [2], 6.00 to 7.00 in experiment [3] and 7.00 to 7.96 in experiment [4].

Regarding `Cc1cc2ccc1-c1ccnc(n1)Nc1ccc(N)c(c1)COCCCCNC2=O` [Example 78, 4^4-amino-1^2-methyl-6-oxa-3,11-dia-za-2(4,2)-pyrimidina-1(1,4),4(1,3)-dibenzenacyclododecaphan-12-one], the pIC50 in experiment [1] is 7.00 to 7.96; in experiment [2], less than 5.00; in experiment [3] it was 5.00 to 6.00; in experiment [4] it was 6.00 to 7.00.

With `Nc1cc2ccc1-c1ccnc(n1)Nc1ccc(OC3CCC3)c(c1)COCCCCNC2=O` [Example 79, 1^2-amino-4^4-cyclobutoxy-6-oxa-3,11-diaza-2(4,2)-pyrimidina-1(1,4),4(1,3)-dibenzenacyclododecaphan-12-one], the pIC50 in experiment [1] was 7.00 to 7.96; in experiment [2], 5.00 to 6.00; in experiment [3], 6.00 to 7.00; in experiment [4], 6.00 to 7.00.

`O=C1NC2CCC(CC2)COCc2cc(ccc2N2CCOCC2)Nc2nccc(n2)-c2ccc1cc2` [Example 80, 4^4-morpholine-6-oxa-3,9-diaza-2(4,2)-pyrimidina-1(1,4),4(1,3)-dibenze-na-8(1,4)-cyclododecaphan-10-one]: the pIC50 in experiment [1] was 5.00 to 6.00; in experiment [2], less than 5.00; in experiment [3] it was 5.00 to 6.00; in experiment [4], 5.00 to 6.00.

For the molecule `O=C1NCCCCOCc2cc(ccc2O)Nc2nccc(n2)-c2ccc1cc2[N+](=O)[O-]` [Example 81, 4^4-hydroxy-1-nitro-6-oxa-3,11-diaza-2(4,2)-pyrimidina-1(1,4),4(1,3)-di-benzenacyclododecaphan-12-one], the pIC50 in experiment [1] is 6.00 to 7.00; in experiment [2], less than 5.00; in experiment [3] it was 5.00 to 6.00; in experiment [4], 5.00 to 6.00.

On to `CNc1cc2ccc1-c1ccnc(n1)Nc1ccc(OC3CC3)c(c1)COCCCCNC2=O` [Example 82, 4^4-cyclopropoxy-1^2-methylamino-6-oxa-3,11-diaza-2(4,2)-pyrimidina-1(1,4),4(1,3)-dibenzenacyclododeca-phan-12-one], for which the pIC50 in experiment [1] is 5.00 to 6.00; in experiment [2] it was less than 5.00; in experiment [3], 5.00 to 6.00; in experiment [4], 5.00 to 6.00.

Regarding `CN(C)c1cc2ccc1-c1ccnc(n1)Nc1ccc(OC3CC3)c(c1)COCCCCNC2=O` [Example 83, 4^4-cyclopropxy-1^2-dimethylamino-6-oxa-3,11-diaza-2(4,2)-pyrimidina-1(1,4),4(1,3)-dibenzenacyclododeca-phan-12-one], the pIC50 is less than 5.00 in experiment [1], less than 5.00 in experiment [2], 5.00 to 6.00 in experiment [3] and 5.00 to 6.00 in experiment [4].

On to `Nc1cc2ccc1-c1ccnc(n1)Nc1cc(F)c(OC3CCOCC3)c(c1)COCCCCNC2=O` [Example 84, 1^2-amino-4^5-fluoro-4^4-((tetrahydro-2H-pyran-4-yl)oxy)-6-oxa-3,11-dia-za-2(4,2)-pyrimidina-1(1,4),4(1,3)-dibenzenacyclododecaphan-12-one], for which the pIC50 in experiment [1] was 7.00 to 7.96; in experiment [2], 5.00 to 6.00; in experiment [3], 6.00 to 7.00; in experiment [4], 6.00 to 7.00.
